Measurements reported in patent US20200010910A1, “Cytotoxic Chemotherapy-Based Predictive Assays for Acute Myeloid Leukemia” (The Regents of The University of California, priority 2017, published 2020).

Assays:
PDX Model BL0293 = assay: drug-DNA adducts in PDX tumor by AMS; assay type: in vivo, NSG mice; settings: microdose 0.375 mg/kg carboplatin, 24 h
Source text: (§1) Female NSG mice (5-8 weeks of age, body weight: 20 to 25 g) were obtained from Jackson Laboratories (CA, USA). All animals were kept under pathogen-free conditions and were allowed to acclimatize for at least 4 days prior to any experiments. PDX models bearing the indicated patient derived xenografts were created by subcutaneous injection at the flank of 1 mm^3 tumor tissue. To establish multiple PDXs to allow efficacy studies with multiple drugs, PDXs from passage 2-4 were minced into 1 mm^3 sections and injected subcutaneously into multiple mice. At least 3 mice were used for each treatment group. Tumors were allowed to grow to at about 100 mm^3 before being assessed for drug sensitivity or the induction of DNA adducts by the administration of a microdose or a therapeutic dose of labeled drug. To assess tumor response to chemotherapy, cisplatin was administered at 2 mg/kg IV every 7 days for a total of 3 cycles, or gemcitabine was administered at 150 mg/kg IP every 7 days for a total of 4 cycles. G/C combination chemotherapy consisted of the simultaneous administration of both drugs using the schema described above. Tumor growth was assessed by measuring palpable tumors with a caliper and calculating tumor volume. Drug-DNA adduct frequencies were measured in tumor tissue collected 24 hours after intravenous injection of labeled drug and stored at −80° C. until DNA isolation. DNA was isolated using a modified Wizard procedure (Promega), quantitated by spectrophotometry, and then stored frozen at −20° C. until AMS analysis. Ten micrograms of DNA per sample was converted to graphite and measured by AMS for 14C quantification as previously described.
(§2) NSG mice bearing the indicated PDX tumors were injected with a microdose of ^14C-labeled carboplatin (FIG. 22A) or ^14C-labeled gemcitabine (FIG. 22B). The microdose of ^14C-labeled carboplatin was 0.375 mg/kg carboplatin, 50,000 dpm/g. The microdose of ^14C-labeled gemcitabine was 0.092 mg/kg gemcitabine, 1000 dpm/g. The doses of each drug administered to the mice were chosen to target 1 μM in plasma concentration of carboplatin and 0.3 μM in plasma concentration of gemcitabine. These plasma concentrations represent 1% of the approximate peak plasma concentration during human chemotherapy. Animals were sacrificed after 24 h and drug-DNA adduct frequency was determined from collected tumor tissue by AMS measurements of ^14C in tumor DNA. Carboplatin DNA-adduct levels correlate with PDX model sensitivity to cisplatin at 24 h after microdosing (FIG. 22A). Gemcitabine DNA-adduct levels correlate with PDX model sensitivity to gemcitabine at 24 h after microdosing (FIG. 22B). […] There is no significant difference in carboplatin-DNA monoadduct levels between the three resistant PDX models. […]

PDX Model BL0440 = assay: drug-DNA adducts in PDX tumor by AMS; assay type: in vivo, NSG mice; settings: microdose 0.375 mg/kg carboplatin, 24 h
Source text: as §1, §2

[1] = patients; cited from earlier work
HCC827 = assay: carboplatin-DNA monoadducts by AMS; assay type: cell-based, human
Protocol: NSCLC cell lines were cultured to >90% confluence, dosed with [^14C]carboplatin, and subjected to DNA isolation and AMS analysis. 60 mm dishes were seeded at a density of 1×10^6 cells/dish and allowed to attach overnight in a 37° C. humidified atmosphere containing 5% CO2. At hour 0, cells were dosed with 1 μM (relevant microdose concentration) or 100 μM carboplatin (therapeutically relevant concentration), each comprising 0.3 μM [^14C]carboplatin (50,000 dpm/ml). Cells were incubated with [^14C]carboplatin for 4 h before washing and cultured with carboplatin-free medium to mimic the in vivo carboplatin half-life (1.3-6 hours) in patients. DNA was harvested from the cell lines at hours 0, 2, 4, 8 and 24 hours after initial dosing. Ten micrograms of DNA per sample was converted to graphite and measured by AMS for ^14C/total C quantification. Triplicate sets of AMS experiments were performed for each cell line and time point. The 14C/total C ratio was converted to 14C atoms per DNA base-pair according to the algorithm described herein to provide values of carboplatin-DNA monoadducts per 10^8 nucleotides. The data was plotted as carboplatin-DNA monoadducts per 10^8 nucleotide (nt) vs time (FIGS. 8A and 8B). There was a time-dependent increase in the carboplatin-DNA monoadduct concentration during the first 4 hours of incubation with therapeutic or microdosing carboplatin (FIGS. 8A and 8B). After the cells were washed and incubated with carboplatin-free media, the monoadduct levels decreased over a period of several hours. […] Carboplatin-DNA monoadduct levels in the microdosing group had essentially the same kinetics as the therapeutic group, but with 100-fold lower adduct levels at each time point (FIGS. 8A and 8B).

## N.N.O=C([O-])C1(C(=O)[O-])CCC1.[Pt+2] [carboplatin]
PDX Model BL0293
  mean carboplatin-DNA monoadduct level: 1.46±0.520 adducts per 10^8 nucleotides
PDX Model BL0440
  mean carboplatin-DNA monoadduct level: 2.73±0.661 adducts per 10^8 nucleotides
[1]
  in vivo carboplatin half-life in patients: 1.3 to 6 h
HCC827; 1 μM carboplatin
  Adduct level-4 hr-microdose: 2.5 ± 0.0 /10^8 nt
HCC827; 1 μM carboplatin 4 h, up to 24 hours
  AUC of adduct-microdose: 51.7 ± 2.4 hr-adducts/10^8 nt
HCC827; 1 μM carboplatin 4 h then drug-free
  Adduct level-24 hr Microdose: 1.8 ± 0.3 /10^8 nt
HCC827; 100 μM carboplatin
  Adduct level-4 hr-therapeutic: 295 ± 58.8 /10^8 nt
HCC827; 100 μM carboplatin 4 h, up to 24 hours
  AUC of adduct-therapeutic: 4941 ± 739 hr-adducts/10^8 nt
HCC827; 100 μM carboplatin 4 h then drug-free
  Adduct level-24 hr-therapeutic: 162 ± 15.4 /10^8 nt
